# Molecular target: T1, NapT8 (Streptomyces sp. CNQ-525, UniProt A7KH30)
# T1 sequence (A7KH30 1-297): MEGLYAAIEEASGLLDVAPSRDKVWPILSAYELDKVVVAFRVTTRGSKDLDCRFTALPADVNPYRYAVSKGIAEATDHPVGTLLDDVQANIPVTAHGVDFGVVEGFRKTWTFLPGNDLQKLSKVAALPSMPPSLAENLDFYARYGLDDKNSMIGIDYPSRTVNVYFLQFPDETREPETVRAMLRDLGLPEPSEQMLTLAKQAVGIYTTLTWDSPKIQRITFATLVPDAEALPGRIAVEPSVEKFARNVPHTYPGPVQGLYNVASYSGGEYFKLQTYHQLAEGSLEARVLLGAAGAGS
# Assay: reversed-phase HPLC turnover assay
# Type: biochemical
# Conditions: 34 as prenyl acceptor; MgCl2
smiles,measurement,value
CC(C)=CCOP(=O)(O)OP(=O)(O)O [dimethylallyl pyrophosphate],reversed-phase HPLC turnover assay,NapT8 was only active when the isoprenoid DMAPP was utilized

# Source: publication PMC5960991 (Nature chemistry, 2017)
